Experimental data published in US9458137B2, “Substituted indol-5-ol derivatives and their therapeutical applications” (NantBioScience, Inc., priority 2012, dated 2016).

What follows are compounds tested on abl kinase (assay: abl kinase inhibition assay).
Format: biochemical

Row | SMILES | % Inhibition @1 μM Abl [%]
1 | C/C=C/c1cc(Nc2cc(N3CCC(O)C3)nc(Oc3cc(F)c4[nH]c(C)cc4c3F)n2)n[nH]1 (stereo not shown) [Example 92] | 111
2 | C/C=C/c1cc(Nc2cc(N3CCC(OC)C3)nc(Oc3cc(F)c4[nH]c(C)cc4c3F)n2)n[nH]1 (stereo not shown) [Example 93] | 111
3 | C/C=C/c1cc(Nc2cc(N3CCC(N(CC)CC)C3)nc(Oc3cc(F)c4[nH]c(C)cc4c3F)n2)n[nH]1 (stereo not shown) [Example 94] | 111
4 | C/C=C/c1cc(Nc2cc(N3CCC(O)CC3)nc(Oc3cc(F)c4[nH]c(C)cc4c3F)n2)n[nH]1 [Example 95] | 110
5 | C/C=C/c1cc(Nc2cc(N3CCC(OC)CC3)nc(Oc3cc(F)c4[nH]c(C)cc4c3F)n2)n[nH]1 [Example 96] | 110
6 | C/C=C/c1cc(Nc2cc(N3CCN(S(C)(=O)=O)CC3)nc(Oc3cc(F)c4[nH]c(C)cc4c3F)n2)n[nH]1 [Example 98] | 111
7 | C/C=C/c1cc(Nc2cc(N3CCN(CC)CC3)nc(Oc3cc(F)c4[nH]c(C)cc4c3F)n2)n[nH]1 [Example 99] | 113
8 | CCN1CCN(c2cc(Nc3cc(C)[nH]n3)nc(Oc3cc(F)c4[nH]c(C)cc4c3F)n2)CC1 [Example 103] | 113
9 | Cc1cc(Nc2cc(N3CCN(CCO)CC3)nc(Oc3cc(F)c4[nH]c(C)cc4c3F)n2)n[nH]1 [Example 105] | 112
10 | Cc1cc(Nc2cc(N3CCNCC3)nc(Oc3cc(F)c4[nH]c(C)cc4c3F)n2)n[nH]1 [Example 106] | 109
11 | Cc1cc(Nc2cc(N3CCOCC3)nc(Oc3cc(F)c4[nH]c(C)cc4c3F)n2)n[nH]1 [Example 107] | 111
12 | C/C=C/c1cc(Nc2cc(N3CCN(C)CC3)nc(Oc3ccc4[nH]c(C)cc4c3Cl)n2)n[nH]1 [Example 112] | 113
13 | C/C=C/c1cc(Nc2cc(N3CCN(C)CC3)nc(Oc3ccc4c(cc(C)n4C)c3F)n2)n[nH]1 [Example 120] | 115
14 | C/C=C/c1cc(Nc2cc(N3CCOCC3)nc(Oc3ccc4c(cc(C)n4C)c3F)n2)n[nH]1 [Example 121] | 116
15 | Cc1cc2c(F)c(Oc3nc(Nc4cc(C5CC5)[nH]n4)cc(N4CCN(C)CC4)n3)ccc2n1C [Example 122] | 109
16 | Cc1cc2c(F)c(Oc3nc(Nc4cc(C5CC5)[nH]n4)cc(N4CCOCC4)n3)ccc2n1C [Example 123] | 114
